In article PMC8175240, “Integrase-derived peptides together with CD24-targeted lentiviral particles inhibit the growth of CD24 expressing cancer cells” (Oncogene, 2021):
Residues, ends and D or L forms follow the SMILES beside them.

Columns and labels:
[1] = Stability test in human plasma; format: in vitro ADME; details: for Analyte Remaining % / Concentration calculated from LC-MS data: human plasma, 10 mg/ml stock into plasma 1:1, LC-MS; for Concentration calculated from LC-MS data: methanol precipitation, 0.45 µm filtration; for Stability: rat and human plasma
Description: (§1) Analytic HPLC-MS was performed using an Agilent 1260 series Liquid Chromatography/Mass Selective Detector (MSD) equipped with an electrospray interface and a UV diode array detector. Analyses were performed on an ACE C8, 50 × 3.0 mm, 3 µm column, with an isocratic 0.1% formic acid/ACN eluent, at a rate of 1 ml/min over a period of 5 min. UV absorption was measured at 280 nm, 220 nm, and 215–395 nm. MS analysis was performed with ESI (electron spray ionization) with a positive ionization method.
(§2) Four reaction systems were prepared; INS and INR2 in human plasma, INS and INR2 in rat plasma (Supplementary Table 2). Freshly prepared 10 mg/ml stock solution of the peptides was injected into plasma or PBS solution (1:1). The mixture was diluted with methanol to precipitate the plasma proteins. The samples were filtered through PTFE 0.45 µm filters and run in LC-MS. Samples were taken at the following times: 0, 15, 30, 60, 120, 240, and 480 min and after 24 h.

[2] = Stability test in rat plasma; format: in vitro ADME; details: for Analyte Remaining %: 10 mg/ml stock into plasma 1:1, LC-MS; for Concentration calculated from LC-MS data: 10 mg/ml stock into plasma 1:1, methanol precipitation, 0.45 µm filtration
Description: as §1, §2

[3] = system: CHO-WBL cells; test: Chromosomal aberration assay (genotoxicity); format: cell-based, Chinese hamster; details: for % Gaps / % Structural aberration without gaps / Cells with endoreduplication (%) / Cells with polyploidy (%) / Cytotoxicity (%) / % Structural aberrant cells: harvest 22 h; for Cytotoxicity (%): cell growth inhibition relative to negative control; for % Structural aberrant cells: cells with only gaps not included
Description: All cells were cultured for 22 h after initiation of INS treatment.

[4] = system: SD rats; test: Immunogenicity, anti-peptide antibody ELISA; format: in vivo, rat; details: biweekly administrations over 10 weeks, serum 1:50
Description: Animals were fed ad libitum a commercial rodent diet (Teklad Certified Global 18% Protein Diet). Animals had free access to sterilized and acidified drinking water (pH between 2.5 and 3.5). SD rats were randomly allocated to cages and treated twice a week, for ten weeks with INS peptide, at two doses of 1.5 and 7.5 mg/kg. Rat blood was collected before immunization (exposure to the peptide) to serve as a baseline, and after immunization at day 21, 35, 49, and 70/72. The immunogenicity was analyzed by evaluation of anti-peptide antibodies in the sera of SD rats, using a specific developed ELISA test. A 96 well plate was coated overnight with INS labeled with biotin (5 µg/ml) (Thermo Scientific) followed by blocking (3% Milk in PBS) for 1 h at room temperature (RT). Serum samples were diluted at 1:50 and added to the plates for 1 h at RT. After washing with PBST (three times), a donkey anti-rat antibody (Jackson Laboratories, cat. no. 705-035-003) (diluted 1:5000) was added and incubated for 1 h at RT. Then, TMB, diluted 1:2 was added and the reaction was stopped after 10 min with HCL solution. Absorbance was measured by an automated microplate reader (iMARK microplate reader, BioRad) with a wavelength of 450 nm.

[5] = system: HeLa cells; parameters: method as in PMID 20517955; details: cited from earlier work
[6] = INS 10 µg/mL, +S9, 3 h treatment
[7] = INS 10 µg/mL, −S9, 3 h treatment
[8] = INS 10 µg/mL, −S9, 22 h treatment
[9] = INS 25 µg/mL, +S9, 3 h treatment
[10] = INS 25 µg/mL, −S9, 3 h treatment
[11] = INS 25 µg/mL, −S9, 22 h treatment
[12] = INS 50 µg/mL (precipitate), +S9, 3 h treatment
[13] = INS 50 µg/mL (precipitate), −S9, 3 h treatment
[14] = INS 50 µg/mL (precipitate), −S9, 22 h treatment

## CC[C@H](C)[C@H](NC(=O)[C@H](Cc1ccccc1)NC(=O)[C@@H](NC(=O)[C@H](C)NC(=O)[C@H](CCSC)NC(=O)[C@H](CCC(N)=O)NC(=O)[C@@H](NC(=O)[C@H](C)NC(=O)[C@@H](NC(=O)[C@@H](N)Cc1c[nH]c2ccccc12)[C@@H](C)O)C(C)C)C(C)C)C(=O)N[C@@H](Cc1c[nH]cn1)C(=O)N[C@@H](CC(N)=O)C(=O)N[C@@H](Cc1ccccc1)C(=O)N[C@@H](CCCCN)C(=O)N[C@@H](CCCNC(=N)N)C(=O)N[C@@H](CCCCN)C(=O)O [INS] (H-WTAVQMAVFIHNFKRK-OH)
[1]; 0 h
  Analyte Remaining %: 65.7%
  Concentration calculated from LC-MS data: 3290 µg/mL
[1]; 0.25 h
  Analyte Remaining %: 60.9%
  Concentration calculated from LC-MS data: 3040 µg/mL
[1]; 0.5 h
  Analyte Remaining %: 71.1%
  Concentration calculated from LC-MS data: 3590 µg/mL
[1]; 1 h
  Analyte Remaining %: 58.4%
  Concentration calculated from LC-MS data: 2920 µg/mL
[1]; 2 h
  Analyte Remaining %: 62.7%
  Concentration calculated from LC-MS data: 3130 µg/mL
[1]; 4 h
  Analyte Remaining %: 62.2%
  Concentration calculated from LC-MS data: 3110 µg/mL
[1]; 8 h
  Analyte Remaining %: 44.2%
  Concentration calculated from LC-MS data: 2210 µg/mL
[1]; 24 h
  Analyte Remaining %: 23.8%
  Concentration calculated from LC-MS data: 1190 µg/mL
[1]; after 8 h
  Stability: 40%
[1]; after 24 h
  Stability: ~ 25%
[2]; 0 h
  Analyte Remaining %: 80.3%
  Concentration calculated from LC-MS data: 4010 µg/mL
[2]; 0.25 h
  Analyte Remaining %: 68.2%
  Concentration calculated from LC-MS data: 3410 µg/mL
[2]; 0.5 h
  Analyte Remaining %: 65.3%
  Concentration calculated from LC-MS data: 3260 µg/mL
[2]; 1 h
  Analyte Remaining %: 58.9%
  Concentration calculated from LC-MS data: 2940 µg/mL
[2]; 2 h
  Analyte Remaining %: 50.5%
  Concentration calculated from LC-MS data: 2530 µg/mL
[2]; 4 h
  Analyte Remaining %: 38.6%
  Concentration calculated from LC-MS data: 1930 µg/mL
[2]; 8 h
  Analyte Remaining %: 36.1%
  Concentration calculated from LC-MS data: 1800 µg/mL
[2]; 24 h
  Analyte Remaining %: 14.8%
  Concentration calculated from LC-MS data: 740 µg/mL
[3]; 10-50 µg/mL, ±S9, 3 and 22 h
  Induction of structural chromosomal aberrations (conclusion): negative
[3]; [6]
  % Gaps: 0.3%
  % Structural aberration without gaps: 1.0%
  Cells with endoreduplication (%): 0.0%
  Cells with polyploidy (%): 0.0%
  Cytotoxicity (%): 5%
  % Structural aberrant cells: 1.0%
[3]; [7]
  % Gaps: 0.7%
  % Structural aberration without gaps: 1.3%
  Cells with endoreduplication (%): 0.0%
  Cells with polyploidy (%): 0.0%
  Cytotoxicity (%): 4%
  % Structural aberrant cells: 1.3%
[3]; [8]
  % Gaps: 0.7%
  % Structural aberration without gaps: 1.0%
  Cells with endoreduplication (%): 0.0%
  Cells with polyploidy (%): 0.0%
  Cytotoxicity (%): −1%
  % Structural aberrant cells: 1.0%
[3]; [9]
  % Gaps: 0.3%
  % Structural aberration without gaps: 1.0%
  Cells with endoreduplication (%): 0.3%
  Cells with polyploidy (%): 0.0%
  Cytotoxicity (%): −1%
  % Structural aberrant cells: 1.0%
[3]; [10]
  % Gaps: 0.3%
  % Structural aberration without gaps: 1.0%
  Cells with endoreduplication (%): 0.3%
  Cells with polyploidy (%): 0.0%
  Cytotoxicity (%): −10%
  % Structural aberrant cells: 1.0%
[3]; [11]
  % Gaps: 0.0%
  % Structural aberration without gaps: 1.0%
  Cells with endoreduplication (%): 0.0%
  Cells with polyploidy (%): 0.0%
  Cytotoxicity (%): −3%
  % Structural aberrant cells: 1.0%
[3]; [12]
  % Gaps: 0.3%
  % Structural aberration without gaps: 1.7%
  Cells with endoreduplication (%): 7.3%
  Cells with polyploidy (%): 0.0%
  Cytotoxicity (%): 46%
  % Structural aberrant cells: 1.7%
[3]; [13]
  % Gaps: 0.7%
  % Structural aberration without gaps: 1.3%
  Cells with endoreduplication (%): 0.0%
  Cells with polyploidy (%): 0.0%
  Cytotoxicity (%): −7%
  % Structural aberrant cells: 1.3%
[3]; [14]
  % Gaps: 0.3%
  % Structural aberration without gaps: 1.3%
  Cells with endoreduplication (%): 0.0%
  Cells with polyploidy (%): 0.0%
  Cytotoxicity (%): −1%
  % Structural aberrant cells: 1.3%
[4]; dose level 1.5 (mg/kg)
  Immunogenicity (anti-peptide antibodies, ELISA; words): no
[4]; dose level 7.5 (mg/kg)
  Immunogenicity (anti-peptide antibodies, ELISA; words): very low
[5]
  Cell permeability: cell-permeable
  Toxicity: non-toxic
